Measurements from patent US20260069653A1, “COMPLEMENT INHIBITOR DOSING REGIMENS” (Apellis Pharmaceuticals, Inc., priority 2021, published 2026).
Square brackets hold non-standard residues; d marks the D form. Trp(5-F) = N[C@@H](Cc1c[nH]c2ccc(F)cc12)C(=O)O; Trp(5-Me) = Cc1ccc2[nH]cc(C[C@H](N)C(=O)O)c2c1; Trp(6-F) = N[C@@H](Cc1c[nH]c2cc(F)ccc12)C(=O)O; Bpa = N[C@@H](Cc1ccc(C(=O)c2ccccc2)cc1)C(=O)O; 1Nal = N[C@@H](Cc1cccc2ccccc12)C(=O)O; 2Nal = N[C@@H](Cc1ccc2ccccc2c1)C(=O)O; Igl = N[C@H](C(=O)O)C1Cc2ccccc2C1

Assays:
complement activation = conditions: fold more active than compstatin amidated at the C-terminus; published data and assays; cited from earlier work
[1] = tested on: total complement hemolytic activity (CH50); experiment: CH50 after single IV infusion; type: in vivo, human
[2] = tested on: alternative complement pathway hemolytic activity (AH50); experiment: AH50 hemolytic assay on serum after single IV infusion; type: in vivo, human
Description: AH50 Method: AH50 was measured by a hemolytic assay based on lysis of rabbit red blood cells (RA) due to activation of complement on the cell's surface. The AH50 (50% Alternative Complement Hemolytic dose) was determined for each component by adding a limiting amount of the test serum or plasma. For this assay, the buffers are created such as to block activity of the classical pathway, which requires calcium. Serial dilutions of the test specimen were mixed with equal volumes of the RA. This functional assay measured the amount of hemoglobin that was released when the target cells were lysed by the action of complement, and from this, the percentage of the cells that had been lysed was calculated. The major peak of the hemoglobin spectrum was read at 415 nm wavelength. For each assay the run was verified with a five-point standard and five points of characterized QC control.
AH50 Calculations: For verifiable continuity between assay runs, the AH50 assay was performed using a human serum standard with known AH50 activity. […] If the dilution series produced lysis that spanned the 50% point, the three points closest to the 50% point were used to determine the slope and intercept of the line by linear regression. If the percent lysis was very low and none of the dilutions produced 50% lysis, then the two highest points in the series were used, because the slope changes drastically as the sigmoid curve reaches its lower limit. Each specimen from the study was diluted in the same manner and individual 50% lysis points determined by linear regression.

[3] = human, in vivo
Description: (§4) Subjects were monitored during a safety period from Day 2 to 8 by physical examination, ECG, hematology, serum chemistry, monitoring for injection site reaction and treatment emergent adverse events (TEAEs). Follow-up safety assessments were performed on Days 15, 22, 29, and 43.

acute hemolysis [4] = experiment: Hemoglobin during intensive dosing for acute hemolysis in PNH patients; type: in vivo, human; conditions: patients with and without RBC transfusion (FIG. 6)
From the text: (§1) Eligibility criteria for the intensive dosing regimen included lactate dehydrogenase (LDH) >2× the upper limit of normal (ULN) and one new or worsening sign or symptom of hemolysis (e.g., decreased hemoglobin (Hb), hemoglobinuria, or fatigue).
(§2) Patients who experienced additional acute hemolysis events after receiving intensive PEG treatment received additional doses of intensive SC PEG or intensive IV PEG. […] Analyzed data relates to the first event if a patient experienced multiple acute hemolysis events.
(§3) Levels of Hb (on day 1) and LDH (on day 1, day 2, days 7-12, days 14-19) during the event of acute hemolysis were determined. […] For each patient, at least 6 days were between the measurements on day 7-12 and day 14-19. Safety was evaluated by the incidence and severity of adverse events.

[5] = Safety of intensive dosing in PNH patients; type: in vivo, human; conditions: intensive PEG treatment
From the text: as §1, §2, §3

[6] = Safety in healthy volunteers, ascending dose study
Description: as §4

C3a = C3a levels (ELISA) after single IV infusion; type: in vivo, human
Description: C3a Split Product Testing: C3a was measured by ELISA (BD Pharmingen optEIA) using microtiter plates precoated with specific monoclonal antibodies against C3a. The standards, controls and test specimens were diluted and placed in duplicate into the wells and incubated to allow binding of the split products to the antibodies in the well. After washing away unbound proteins, a second anti-split products antibody, conjugated to an enzyme (horseradish peroxidase) was allowed to react with the split products bound to the first antibody on the plate. After an appropriate incubation time and washing, a chromogenic substrate for the enzyme was added to the wells, and the intensity of color that developed was determined spectrophotometrically. Three QC specimens were run on every assay.
C3a ELISA Calculations: The optical densities (OD) for each of the wells containing the standards for the assay were entered as the dependent variables (Y) in a linear regression calculation (Microsoft Excel) in which the concentrations of the standards (provided by the kit manufacturer, BD Pharmingen) were the independent variables (X). The slope (m) and intercept (b) obtained from the regression analysis on a log-log were then used to calculate the concentrations of the unknowns (controls and test specimens). The formula for a straight line was used to calculate the unknown values using a log/log solution: LnY=mLnX+b, solved for X: X=exp (LnY−b)/m*dilution.

[7] = Serum concentration of PEG after single IV infusion, ascending dose study; type: in vivo, human; conditions: for peak concentration (Cmax), mean serum concentration: healthy subjects
acute hemolysis [8] = experiment: LDH during intensive dosing for acute hemolysis in PNH patients; type: in vivo, human
From the text: as §1, §2, §3

For “Ac-ICVWQDWGAHRCdT-COOH [Ac-V4W/H9A/T13dT-OH]”, the Activity over compstatin (complement activation) is listed as 55x.

In the case of “Ac-ICV[(2-Nal)QDWGAHRCT-COOH (Ac-ICV[2Nal]QDWGAHRCT-OH; not fully specified (bridges); printed as Ac-ICV[(2-Nal)QDWGAHRCT-COOH; cysteine pairing not given here) [Ac V4(2-Nal)/H9A-OH]”, the Activity over compstatin (complement activation) is listed as 38x.

In the case of “Ac-ICV(2-Igl)QDWGAHRCT-COOH (Ac-ICV[Igl]QDWGAHRCT-OH; not fully specified (bridges); printed as Ac-ICV(2-Igl)QDWGAHRCT-COOH; cysteine pairing not given here) [Ac-V42Igl/H9A-OH]”, the Activity over compstatin (complement activation) is given as 37x.

In the case of “Ac-ICV(5-methyl-W)QDWGAHRCT-CONH2 (Ac-ICV[Trp(5-Me)]QDWGAHRCT-NH2; not fully specified (bridges); printed as Ac-ICV(5-methyl-W)QDWGAHRCT-CONH2; cysteine pairing not given here) [Ac-V4(5-MeW)/H9A]”, the Activity over compstatin (complement activation) is listed as 67x.

In the case of “Ac-ICVWQDWGAHRCT-CONH2 (Ac-ICVWQDWGAHRCT-NH2; not fully specified (bridges); printed as Ac-ICVWQDWGAHRCT-CONH2; cysteine pairing not given here) [Ac-V4W/H9A]”, the Activity over compstatin (complement activation) is listed as 45x.

In the case of “Ac-ICV(5fW)QDWGAHRCT-CONH2 (Ac-ICV[Trp(5-F)]QDWGAHRCT-NH2; not fully specified (bridges); printed as Ac-ICV(5fW)QDWGAHRCT-CONH2; cysteine pairing not given here) [Ac-V4(5fW)/H9A]”, the Activity over compstatin (complement activation) is given as 31x.

With “Poly(oxy-1,2-ethanediyl), α-hydro-ω-hydroxy-, 15,15′-diester with N-acetyl-L-isoleucyl-L-cysteinyl-L-valyl-1-methyl-L-tryptophyl-L-glutaminyl-L-α-aspartyl-L-tryptophylglycyl-L-alanyl-L-histidyl-L-arginyl-L-cysteinyl-L-threonyl-2-[2-(2-aminoethoxy)ethoxy]acetyl-N^6-carboxy-L-lysinamide cyclic (2-->12)-(disulfide) [PEG]” the “Mean CH50 upon dosing” value ([1]; all cohorts) was “decreased immediately”, the “time for which decrease in mean CH50 was retained” value ([1]; single IV 1500 mg) was “at least 48 hours” and the “time by which mean CH50 returned to baseline” value ([1]; single IV 2300 mg, post-dosing start) was at most 24 h. For the same substance, the “AH50 level from 1 hr post-dosing start” value ([2]; 1500 and 2300 mg single IV doses) was “undetectable levels”, the “time within which decreases in mean AH50 values were detected” value ([2]; all PEG cohorts (200-2300 mg single IV)) was at most 1 h and the “mean maximum decrease of AH50 compared to placebo” value ([2]; all PEG groups, p<0.0001) was “statistically significant larger”. The “time for which decrease in mean AH50 was maintained” value ([2]; single IV 200 mg) was “at least 12 hrs”, the “time for which decrease in mean AH50 was maintained” value ([2]; single IV 600 mg) was at least 72 h and the “time for which decrease in mean AH50 was maintained” value ([2]; single IV 1500 mg) was at least 144 h. The “incidence of upper respiratory infections (TEAE)” value [3] was 12.5%, the “mean Hb from day 1 of intensive therapy” value (acute hemolysis [4]) was “increased” and the “patients with serious adverse events” value ([5]; 4 of 13 patients) was 31%. The “patients with treatment-emergent adverse events” value ([5]; Nine of 13 patients) was 69%, the “adverse events leading to treatment discontinuation” value [5] was “None of the adverse events led to treatment discontinuation” and the “adverse events of meningitis or thrombosis” value [5] was “No adverse events of meningitis or thrombosis occurred”. The “share of treatment-emergent adverse events that were mild” value [5] was 76%, the “subjects with moderate TEAE (infusion-related reaction, dizziness, clamminess, nausea) that led to study discontinuation” value ([6]; 2300 mg cohort, one subject, percent of the twenty subjects) was 5.0% and the “incidence of diarrhea (TEAE)” value ([6]; PEG groups, n=2) was 12.5%. For the same substance, the “incidence of headache (TEAE)” value ([6]; PEG groups, n=6) was 37.5%, the “serious adverse events, deaths, severe TEAEs” value ([6]; healthy subjects, single IV 200-2300 mg) was “No serious adverse events, deaths, or severe TEAEs occurred” and the “time within which initial rapid decrease in mean C3a levels occurred” value (C3a; all PEG groups) was at most 1 h. For the same substance, the “time of trough mean C3a levels after dosing” value (C3a; all dose groups) was at most 24 h, the “maximum mean C3a decrease from baseline” value (C3a; single IV 1500 mg, at 4 hours post-dosing start) was 57% and the terminal elimination half-life ([7]; Cohort 4 (2300 mg single IV)) was 11.9 days. For the same substance, the “peak concentration (Cmax), mean serum concentration” value (shortened to “peak concentration (Cmax)”) ([7]; single IV 200 mg, at 1 hr post-dose (infusion start)) was 61 µg/mL, the “peak concentration (Cmax)” value ([7]; single IV 600 mg, at 1 hr post-dose (infusion start)) was 193 µg/mL and the “peak concentration (Cmax)” value ([7]; single IV 1500 mg, at 4 hrs) was 542 µg/mL. The “peak concentration (Cmax)” value ([7]; single IV 2300 mg, at 1 hr post-dose (infusion start)) was 708 µg/mL, the “patients with LDH levels decreased at day 7-12” value (acute hemolysis [8]; all 13 patients, intensive SC or IV PEG) was 13 patients and the “patients with LDH levels decreased between day 1 and day 2” value (acute hemolysis [8]; all evaluable patients, intensive SC or IV PEG 1080 mg) was 8 of 12. The “patients with LDH levels further decreased from day 7-12 to day 14-19” value (acute hemolysis [8]; all patients, intensive SC or IV PEG) was 11 of 13, the “patients with LDH levels further decreased from day 7-12 to day 14-19” value (acute hemolysis [8]; intensive IV PEG) was 3 of 4 and the “patients with LDH levels decreased between day 1 and day 2” value (acute hemolysis [8]; intensive IV PEG (single 1080 mg dose)) was 4 of 4. The “patients with LDH levels further decreased from day 7-12 to day 14-19” value (acute hemolysis [8]; intensive SC PEG) was 7 of 9 and the “patients with LDH levels decreased between day 1 and day 2” value (acute hemolysis [8]; intensive SC PEG (1080 mg every 24 hours for 3 doses)) was 4 of 8.

For Ac-ICVVQDWGHHRCT-CONH2 [Ac-compstatin], the Activity over compstatin (complement activation) is listed as 3x.

For “Ac-ICV(Bpa)QDWGAHRCT-CONH2 (Ac-ICV[Bpa]QDWGAHRCT-NH2; not fully specified (bridges); printed as Ac-ICV(Bpa)QDWGAHRCT-CONH2; cysteine pairing not given here) [Ac-V4(Bpa)/H9A]”, the Activity over compstatin (complement activation) is given as 86x.

In the case of Ac-ICVYQDWGAHRCT-CONH2 [Ac-V4Y/H9A], the Activity over compstatin (complement activation) is listed as 14x.

In the case of “Ac-ICV(Bpa)QDWGAHRCT-COOH (Ac-ICV[Bpa]QDWGAHRCT-OH; not fully specified (bridges); printed as Ac-ICV(Bpa)QDWGAHRCT-COOH; cysteine pairing not given here) [Ac-V4(Bpa)/H9A-OH]”, the Activity over compstatin (complement activation) is given as 49x.

For “Ac-ICV(2-Nal)QDWGAHRCT-CONH2 (Ac-ICV[2Nal]QDWGAHRCT-NH2; not fully specified (bridges); printed as Ac-ICV(2-Nal)QDWGAHRCT-CONH2; cysteine pairing not given here) [Ac-V4(2-Nal)/H9A]”, the Activity over compstatin (complement activation) is listed as 99x.

For “Ac-ICV(2-Igl)QDWGAHRCT-CONH2 (Ac-ICV[Igl]QDWGAHRCT-NH2; not fully specified (bridges); printed as Ac-ICV(2-Igl)QDWGAHRCT-CONH2; cysteine pairing not given here) [Ac-V42Igl/H9A]”, the Activity over compstatin (complement activation) is given as 39x.

In the case of “H-GICV(5fW)QD(5fW)GAHRCTN-COOH (H-GICV[Trp(5-F)]QD[Trp(5-F)]GAHRCTN-OH; not fully specified (bridges); cysteine pairing not given here) [G/V4(5f-WV)/WV7(5fW)/H9A+N-OH]”, the Activity over compstatin (complement activation) is listed as 112x.

In the case of “Ac-ICVWQD(5fW)GAHRCT-CONH2 (Ac-ICVWQD[Trp(5-F)]GAHRCT-NH2; not fully specified (bridges); printed as Ac-ICVWQD(5fW)GAHRCT-CONH2; cysteine pairing not given here) [Ac-V4W/W7(5fW)/H9A]”, the Activity over compstatin (complement activation) is given as 121x.

In the case of “H-GICV(6fW)QD(6fW)GAHRCTN-COOH (H-GICV[Trp(6-F)]QD[Trp(6-F)]GAHRCTN-OH; not fully specified (bridges); cysteine pairing not given here) [+G/V4(6fW)/W7(6fW)H9A+N-OH]”, the Activity over compstatin (complement activation) is listed as 126x.

For “Ac-ICV(1-Nal)QDWGAHRCT-COOH (Ac-ICV[1Nal]QDWGAHRCT-OH; not fully specified (bridges); printed as Ac-ICV(1-Nal)QDWGAHRCT-COOH; cysteine pairing not given here) [Ac V4(1-Nal)/H9A-OH]”, the Activity over compstatin (complement activation) is given as 30x.
